Results reported in patent US8269015B2, “4-azetidinyl-1-heteroaryl-cyclohexane antagonists of CCR2” (Janssen Pharmaceutica N.V., priority 2009, dated 2012).

Molecular target: T1, CCR2 (Homo sapiens, UniProt P41597)
T1 construct: host or cells: THP-1 (human monocytic cell line)
T1 sequence (P41597 1-360 isoform P41597-2): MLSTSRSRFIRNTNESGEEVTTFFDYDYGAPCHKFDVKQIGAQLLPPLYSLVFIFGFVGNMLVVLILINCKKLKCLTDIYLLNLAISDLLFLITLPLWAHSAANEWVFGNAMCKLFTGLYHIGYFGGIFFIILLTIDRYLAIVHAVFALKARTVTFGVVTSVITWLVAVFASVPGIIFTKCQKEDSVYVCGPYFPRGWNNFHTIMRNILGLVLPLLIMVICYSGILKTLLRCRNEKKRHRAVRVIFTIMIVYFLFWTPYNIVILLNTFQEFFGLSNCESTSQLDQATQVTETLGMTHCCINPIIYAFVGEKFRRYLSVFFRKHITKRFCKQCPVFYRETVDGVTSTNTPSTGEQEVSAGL
Experiment: MCP-1 Receptor Binding Assay in THP-1 Cells (125I labeled MCP-1)
Settings: 0.5 nM 125I labeled MCP-1, 2 hours at 30° C., read-out: Inhibition of MCP-1 Binding IC50, CCR2 Binding
Protocol: Compounds of the invention were subjected to various representative biological tests. […] MCP-1 Receptor Binding Assay in THP-1 Cells
Human monocytic cell line THP-1 cells were obtained from American Type Culture Collection (Manassas, Va., USA). […] The cell density was maintained […].
1 μM cold MCP-1 was used for nonspecific binding.

IC50	Structure (SMILES)
130 nM	N#CCn1cc(C2CCC(N3CC(NC(=O)CNC(=O)c4cccc(C(F)(F)F)c4)C3)CC2)ccc1=O (stereo not drawn) [Example 41, N-({1-[4-(1-Cyanomethyl-6-oxo-1,6-dihydro-pyridin-3-yl)-cyclohexyl]-azetidin-3-ylcarbamoyl}-methyl)-3-trifluoromethyl-benzamide]
330 nM	O=C(CNC(=O)c1cccc(C(F)(F)F)c1)NC1CN(C2CCC(c3ccc(=O)n(CCO)c3)CC2)C1 (stereo not drawn) [Example 43, N-[(1-{4-[1-(2-Hydroxy-ethyl)-6-oxo-1,6-dihydro-pyridin-3-yl]-cyclohexyl}-azetidin-3-ylcarbamoyl)-methyl]-3-trifluoromethyl-benzamide]
180 nM	O=C(CNC(=O)c1cccc(C(F)(F)F)c1)NC1CN(C2CCC(c3cccc(=O)[nH]3)CC2)C1 (stereo not drawn) [Example 47, N-({1-[4-(6-Oxo-1,6-dihydro-pyridin-2-yl)-cyclohexyl]-azetidin-3-ylcarbamoyl}-methyl)-3-trifluoromethyl-benzamide]
630 nM	Cn1cccc(C2CCC(N3CC(NC(=O)CNC(=O)c4cccc(C(F)(F)F)c4)C3)CC2)c1=O (stereo not drawn) [Example 48, N-({1-[4-(1-Methyl-2-oxo-1,2-dihydro-pyridin-3-yl)-cyclohexyl]-azetidin-3-ylcarbamoyl}-methyl)-3-trifluoromethyl-benzamide]
> 25000 nM	O=C(CNC(=O)c1ccccc1)NC1CN(C2CCC(c3c[nH]c4ccccc34)CC2)C1 (stereo not drawn) [Example 49, N-({1-[4-(1H-Indol-3-yl)-cyclohexyl]-azetidin-3-ylcarbamoyl}-methyl)-benzamide]
920 nM	O=C(CNC(=O)c1cccc(C(F)(F)F)c1)NC1CN(C2CCC(c3c[nH]c4ccccc34)CC2)C1 (stereo not drawn) [Example 50, N-({1-[4-(1H-Indol-3-yl)-cyclohexyl]-azetidin-3-ylcarbamoyl}-methyl)-3-trifluoromethyl-benzamide]
1000 nM	NC(=O)c1ncc(C2CCC(N3CC(NC(=O)CNC(=O)c4cccc(C(F)(F)F)c4)C3)CC2)s1 (stereo not drawn) [Example 53, 5-(4-{3-[2-(3-Trifluoromethyl-benzoylamino)-acetylamino]-azetidin-1-yl}-cyclohexyl)-thiazole-2-carboxylic acid amide]
340 nM	O=C(CNC(=O)c1cccc(C(F)(F)F)c1)NC1CN(C2CCC(c3c[nH]c(=O)s3)CC2)C1 (stereo not drawn) [Example 54, N-({1-[4-(2-Oxo-2,3-dihydro-thiazol-5-yl)-cyclohexyl]-azetidin-3-ylcarbamoyl}-methyl)-3-trifluoromethyl-benzamide]
125 nM	Nc1noc(N)c1C1CCC(N2CC(NC(=O)CNC(=O)c3cccc(C(F)(F)F)c3)C2)CC1 (stereo not drawn) [Example 55, N-({1-[4-(3,5-Diimino-isoxazolidin-4-yl)-cyclohexyl]-azetidin-3-ylcarbamoyl}-methyl)-3-trifluoromethyl-benzamide]
5800 nM	Cn1cc(C2CCC(N3CC(NC(=O)CNC(=O)c4cccc(C(F)(F)F)c4)C3)CC2)c(=O)[nH]c1=O (stereo not drawn) [Example 56, N-({1-[4-(1-Methyl-2,4-dioxo-1,2,3,4-tetrahydro-pyrimidin-5-yl)-cyclohexyl]-azetidin-3-ylcarbamoyl}-methyl)-3-trifluoromethyl-benzamide]
1100 nM	O=C(CNC(=O)c1cccc(C(F)(F)F)c1)NC1CN(C2CCC(c3noc(=O)[nH]3)CC2)C1 (stereo not drawn) [Example 57, N-({1-[4-(5-Oxo-4,5-dihydro-[1,2,4]oxadiazol-3-yl)-cyclohexyl]-azetidin-3-ylcarbamoyl}-methyl)-3-trifluoromethyl-benzamide]
510 nM	O=C(CNC(=O)c1cccc(C(F)(F)F)c1)NC1CN(C2CCC(c3noc(C(Cl)(Cl)Cl)n3)CC2)C1 (stereo not drawn) [Example 58, N-({1-[4-(5-Trichloromethyl-[1,2,4]oxadiazol-3-yl)-cyclohexyl]-azetidin-3-ylcarbamoyl}-methyl)-3-trifluoromethyl-benzamide]
